The text below walks through data of ChEMBL document CHEMBL2331372, “Design and synthesis of D₁ agonist/D₂ antagonist for treatment of schizophrenia” (Bioorg Med Chem Lett, 2013).

Data set [1] deals with T1, D(2) dopamine receptor (Homo sapiens, UniProt P14416). Description: Displacement of [3H]N-methylspiperone from dopamine D2 receptor (unknown origin) expressed in CHO cell membranes after 60 mins.
The target of data set [2] is T2, D(1A) dopamine receptor (Homo sapiens, UniProt P21728). Description: Displacement of [3H]SCH23390 from dopamine D1 receptor (unknown origin) expressed in CHO cell membranes after 60 mins.
The target in data set [3] is T2, D(1A) dopamine receptor. Description: Agonist activity at dopamine D1 receptor (unknown origin) transfected in CHO cell membranes assessed as increase in cAMP level after 8 mins by flash plate assay in presence of dopamine. Type of data set: functional, cell-based.
Data set [4] concerns the target T1, D(2) dopamine receptor. Nature of the data set: Antagonist activity at dopamine D2 receptor (unknown origin) transfected in CHO cell membranes assessed as inhibition of forskolin-stimulated cAMP level after 10 mins by flash plate assay in presence of dopamine. The format is functional, cell-based.
In another data set the target is Cytochrome P450 3A4 (Homo sapiens, UniProt P08684). Nature of the data set: Inhibition of CYP3A4 (unknown origin). Type of data set: ADME.
The target in another data set is Cytochrome P450 2C19 (Homo sapiens, UniProt P33261). Description: Inhibition of CYP2C19 (unknown origin). The format is ADME.
A further data set addresses Cytochrome P450 2C9 (Homo sapiens, UniProt P11712). Nature of the data set: Inhibition of CYP2C9 (unknown origin). Type of data set: ADME.
Another data set deals with T3, Cytochrome P450 1A2 (Homo sapiens, UniProt P05177).
T3 sequence (P05177 whole entry): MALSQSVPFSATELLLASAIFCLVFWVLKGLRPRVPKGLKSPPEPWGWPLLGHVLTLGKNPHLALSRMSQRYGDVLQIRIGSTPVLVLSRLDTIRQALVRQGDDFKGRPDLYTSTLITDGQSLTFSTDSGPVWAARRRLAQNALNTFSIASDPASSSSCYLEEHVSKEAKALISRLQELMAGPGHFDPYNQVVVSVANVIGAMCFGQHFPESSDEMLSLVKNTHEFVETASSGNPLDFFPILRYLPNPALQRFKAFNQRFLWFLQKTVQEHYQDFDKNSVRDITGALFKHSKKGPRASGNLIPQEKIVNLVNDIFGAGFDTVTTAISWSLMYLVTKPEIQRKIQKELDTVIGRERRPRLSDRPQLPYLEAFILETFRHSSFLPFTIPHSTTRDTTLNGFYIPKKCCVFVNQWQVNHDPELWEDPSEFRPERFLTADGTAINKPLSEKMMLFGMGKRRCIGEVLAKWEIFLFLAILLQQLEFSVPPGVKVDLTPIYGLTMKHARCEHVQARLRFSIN
Nature of the data set: Inhibition of CYP1A2 (unknown origin). The format is ADME.

The next data set concerns the target Cytochrome P450 2D6 (Homo sapiens, UniProt P10635). Nature of the data set: Inhibition of CYP2D6 (unknown origin). Type of data set: ADME.
The test system of data set [5] is Mus musculus. Nature of the data set: In vivo receptor occupancy of dopamine D2 receptor in CD1 mouse striatum assessed as inhibition of [3H]N-methylspiperone binding at 10 mg/kg, sc after 15 mins by scintillation counting analysis. Type of data set: functional. Particulars: route subcutaneous; call rule not given here.
Data set [6] has as its system Mus musculus. Nature of the data set: In vivo receptor occupancy of dopamine D1 receptor in CD1 mouse striatum assessed as inhibition of [3H]SCH23390 binding at 10 mg/kg, sc after 15 mins by scintillation counting analysis. The following applies: route subcutaneous. Type of data set: functional.

A value given as a limit tells only on which side of the number the result lay.

T2 sequence (P21728 whole entry): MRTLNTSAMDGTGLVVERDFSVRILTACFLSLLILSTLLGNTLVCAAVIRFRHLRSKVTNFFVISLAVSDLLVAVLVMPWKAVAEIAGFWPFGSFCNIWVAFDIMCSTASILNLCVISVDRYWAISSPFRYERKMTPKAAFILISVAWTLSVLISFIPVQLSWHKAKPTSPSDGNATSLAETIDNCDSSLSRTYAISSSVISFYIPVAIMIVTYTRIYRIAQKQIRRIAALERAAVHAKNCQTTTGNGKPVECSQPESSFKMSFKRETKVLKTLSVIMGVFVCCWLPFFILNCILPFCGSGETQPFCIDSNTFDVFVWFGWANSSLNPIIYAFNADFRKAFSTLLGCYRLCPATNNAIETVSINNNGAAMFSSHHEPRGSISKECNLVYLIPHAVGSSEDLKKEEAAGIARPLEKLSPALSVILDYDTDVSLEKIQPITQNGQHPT
T1 sequence (P14416 whole entry): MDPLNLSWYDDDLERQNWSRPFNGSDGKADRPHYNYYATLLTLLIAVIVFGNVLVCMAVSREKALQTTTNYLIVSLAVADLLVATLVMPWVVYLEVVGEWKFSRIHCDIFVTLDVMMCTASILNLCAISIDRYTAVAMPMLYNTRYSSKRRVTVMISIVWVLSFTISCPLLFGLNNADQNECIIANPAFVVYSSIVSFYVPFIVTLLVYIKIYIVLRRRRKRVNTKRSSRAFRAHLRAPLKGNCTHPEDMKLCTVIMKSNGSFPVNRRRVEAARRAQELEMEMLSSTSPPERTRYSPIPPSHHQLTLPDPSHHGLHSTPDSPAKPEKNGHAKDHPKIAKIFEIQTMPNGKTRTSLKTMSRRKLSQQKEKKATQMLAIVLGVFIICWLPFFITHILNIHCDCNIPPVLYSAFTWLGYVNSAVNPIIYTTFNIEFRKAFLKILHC
Sequence of Cytochrome P450 2C9 (P11712 whole entry): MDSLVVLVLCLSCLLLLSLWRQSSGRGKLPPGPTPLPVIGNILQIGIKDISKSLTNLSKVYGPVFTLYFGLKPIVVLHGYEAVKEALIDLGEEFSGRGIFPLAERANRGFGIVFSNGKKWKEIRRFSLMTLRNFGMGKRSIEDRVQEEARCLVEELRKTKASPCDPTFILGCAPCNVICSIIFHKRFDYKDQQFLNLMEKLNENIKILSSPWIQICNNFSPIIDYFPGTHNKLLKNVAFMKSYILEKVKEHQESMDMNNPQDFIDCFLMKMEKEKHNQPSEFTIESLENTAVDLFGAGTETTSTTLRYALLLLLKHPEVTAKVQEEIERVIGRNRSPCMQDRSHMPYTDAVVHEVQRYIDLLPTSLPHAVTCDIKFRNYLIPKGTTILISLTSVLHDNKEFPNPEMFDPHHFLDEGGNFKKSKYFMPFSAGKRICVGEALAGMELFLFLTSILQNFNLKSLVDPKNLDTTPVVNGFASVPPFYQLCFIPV
Sequence of Cytochrome P450 2D6 (P10635 whole entry): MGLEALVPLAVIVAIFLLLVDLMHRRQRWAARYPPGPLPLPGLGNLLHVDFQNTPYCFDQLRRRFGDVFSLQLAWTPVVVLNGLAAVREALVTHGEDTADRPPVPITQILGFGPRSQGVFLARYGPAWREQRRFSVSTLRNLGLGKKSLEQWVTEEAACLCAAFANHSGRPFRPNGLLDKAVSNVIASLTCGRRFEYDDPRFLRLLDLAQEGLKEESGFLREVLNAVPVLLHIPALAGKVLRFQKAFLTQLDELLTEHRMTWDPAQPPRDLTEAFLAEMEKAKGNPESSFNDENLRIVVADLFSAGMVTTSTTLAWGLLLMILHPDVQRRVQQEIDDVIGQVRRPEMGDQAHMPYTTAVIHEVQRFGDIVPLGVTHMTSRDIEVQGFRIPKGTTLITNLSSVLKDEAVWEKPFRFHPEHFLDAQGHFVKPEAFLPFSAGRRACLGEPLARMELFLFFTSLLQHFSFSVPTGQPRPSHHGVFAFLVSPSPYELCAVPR
Sequence of Cytochrome P450 3A4 (P08684 whole entry): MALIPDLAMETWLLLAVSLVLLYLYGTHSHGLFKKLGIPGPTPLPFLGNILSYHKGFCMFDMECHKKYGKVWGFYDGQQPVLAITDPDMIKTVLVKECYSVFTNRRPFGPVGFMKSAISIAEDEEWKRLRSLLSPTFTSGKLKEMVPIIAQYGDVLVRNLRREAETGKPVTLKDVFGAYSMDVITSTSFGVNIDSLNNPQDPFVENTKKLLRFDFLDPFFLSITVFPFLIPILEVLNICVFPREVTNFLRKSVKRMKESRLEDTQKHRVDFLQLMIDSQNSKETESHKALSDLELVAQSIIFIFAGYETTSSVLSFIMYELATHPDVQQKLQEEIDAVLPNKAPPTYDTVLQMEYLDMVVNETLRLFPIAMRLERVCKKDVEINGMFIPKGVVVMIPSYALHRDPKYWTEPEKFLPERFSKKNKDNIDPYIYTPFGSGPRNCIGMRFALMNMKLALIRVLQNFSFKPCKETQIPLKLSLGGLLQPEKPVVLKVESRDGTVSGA
Sequence of Cytochrome P450 2C19 (P33261 whole entry): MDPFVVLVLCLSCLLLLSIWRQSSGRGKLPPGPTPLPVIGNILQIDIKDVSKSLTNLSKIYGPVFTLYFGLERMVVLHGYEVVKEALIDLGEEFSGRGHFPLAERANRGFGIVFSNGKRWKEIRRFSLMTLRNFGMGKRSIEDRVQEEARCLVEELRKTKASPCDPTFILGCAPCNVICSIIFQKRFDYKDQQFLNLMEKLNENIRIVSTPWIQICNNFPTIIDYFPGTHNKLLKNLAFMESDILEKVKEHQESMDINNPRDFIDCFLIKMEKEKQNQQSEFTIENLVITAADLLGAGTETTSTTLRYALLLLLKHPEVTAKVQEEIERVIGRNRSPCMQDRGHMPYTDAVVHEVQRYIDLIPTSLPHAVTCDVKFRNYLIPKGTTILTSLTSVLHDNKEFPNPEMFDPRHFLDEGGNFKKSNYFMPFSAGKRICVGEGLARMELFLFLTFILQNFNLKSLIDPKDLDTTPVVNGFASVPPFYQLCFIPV

As for `COc1cc2c(cc1O)[C@H]1C[C@@](O)(c3ccc(Cl)cc3)CCN1CC2`, the Ki at D(2) dopamine receptor [1] stood at 0.0148 µM; at D(1A) dopamine receptor [2] it was 0.004 µM. Moreover, the EC50 on D(1A) dopamine receptor [3] (read-out: EC50) stood at 0.008 µM.

As to `COc1cc2c(cc1O)[C@H]1C[C@](O)(c3ccc(Cl)cc3)CCN1CC2`, the IC50 at D(2) dopamine receptor [4] came out at 0.38 µM. Further, the Ki on D(2) dopamine receptor [1] is 0.101 µM; on D(1A) dopamine receptor [2] it was 0.244 µM. On D(1A) dopamine receptor [3] (cho), the EC50 entry was “Not Active”.

On to `Cc1cc2c(cc1O)[C@H]1C[C@](O)(c3ccc(Cl)cc3)CCN1CC2`, for which the IC50 on D(2) dopamine receptor [4] turned out to be 0.15 µM. Moreover, the inhibition constant Ki is 0.132 µM at D(2) dopamine receptor [1] and 0.0459 µM at D(1A) dopamine receptor [2]. At D(1A) dopamine receptor [3] (read-out: EC50), the EC50 stood at 0.75 µM.

In the case of `Cc1cc2c(cc1O)[C@H]1C[C@@](O)(c3ccc(Cl)cc3)CCN1CC2`, the IC50 at D(2) dopamine receptor [4] worked out at 0.22 µM. Besides, the Ki at D(2) dopamine receptor [1] is 0.0123 µM; on D(1A) dopamine receptor [2], 0.0055 µM. Also, on D(1A) dopamine receptor [3] (read-out: EC50), the EC50 is 0.011 µM.

Turning to `COc1cc2c(cc1O)[C@H]1C[C@@](O)(c3ccc(OC(F)(F)F)cc3)CCN1CC2`, the “inhibition (INH)” value against Cytochrome P450 3A4, against Cytochrome P450 2C19, against Cytochrome P450 2C9 and on Cytochrome P450 1A2 was “Not Active” each time. Also, the IC50 on Cytochrome P450 2D6 was 0.84 µM; on D(2) dopamine receptor [4], 0.006 µM. Also, the values for the Occ in the data set on Mus musculus [5] and with Mus musculus [6] were 75% and 95%, respectively. In addition, the Ki worked out at 0.004 µM at D(2) dopamine receptor [1] and 0.002 µM on D(1A) dopamine receptor [2]. Also, the EC50 on D(1A) dopamine receptor [3] (read-out: EC50) stood at 0.005 µM.

As for `COc1ccc2c(c1)CCN1CC[C@](O)(c3ccc(Cl)cc3)C[C@H]21`, the IC50 at D(2) dopamine receptor [4] worked out at 1.01 µM. In addition, the Ki on D(2) dopamine receptor [1] amounted to 0.195 µM; at D(1A) dopamine receptor [2], 0.252 µM. Also, the EC50 result at D(1A) dopamine receptor [3] (cho) was “Not Active”.

On to `COc1ccc2c(c1)CCN1CC[C@@](O)(c3ccc(Cl)cc3)C[C@H]21`, for which the Ki on D(2) dopamine receptor [1] is over 10 µM; on D(1A) dopamine receptor [2], 3.34 µM. Moreover, the concentration for a half-maximal effect (EC50) result at D(1A) dopamine receptor [3] (cho) is given as “Not Active”.
